Measurements as given in patent US12304912B2, “Fused bicyclic RAF inhibitors and methods for use thereof” (Jazz Pharmaceuticals Ireland Limited, priority 2020, dated 2025).
Like-named read-outs stand apart in the source and are kept apart here.

Experiments:
[1] = system: RAF dimers in HCT-116 cells; assay: HCT-116 AlphaLISA SureFire pERK1/2 cellular assay (dimer); format: cell-based; conditions: Homo sapiens, HCT-116, 1 hr
How it was run: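 HCT-116 (KRAS G13D) cells, 30,000/well, pretreated 1 h with 1 μM Encorafenib to induce RAF dimers, washed, then dosed 1 h at 37° C with compound (10-point, top 10 μM, 1/2 log steps) in growth medium. pERK1/2 (T202/Y204) measured by AlphaLISA SureFire; absolute IC50 versus DMSO control.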

[2] = system: constitutive ERK phosphorylation in WiDr cells; assay: WiDr AlphaLISA SureFire pERK1/2 cellular assay; format: cell-based, human; conditions: for IC50: Homo sapiens, read-out: pERK WiDr (2 hr) Abs pIC50 (converted)
Experimental: The human HCT-116 colorectal carcinoma cell line (ATCC CCL-247) endogenously expresses the KRAS^G13D mutation, which leads to constitutive activation of the MAP kinase pathway and phosphorylation of ERK. […] Assay read outs took place 2 or 24 hours after dosing with compounds. On the first day, HCT-116 cells were harvested, resuspended in growth medium (McCoys5A with Glutamax (Life Technologies 36600021) and 10% heat-inactivated fetal bovine serum (Sigma F9665)), and counted. Cells were plated in 100 μl per well in each well of a 96-well culture dish (Sigma CLS3598) to a final density of 30,000 (2 hr read) or 15,000 (24 hr read) cells per well and incubated over night at 37° C. and 5% CO2. On day 2, the growth medium was exchanged for dosing medium (McCoys5A with Glutamax (Life Technologies 36600021) and 1% heat-inactivated fetal bovine serum (Sigma F9665)) and the cells were dosed with compounds to produce a 10-point dose response, where the top concentration was 1 μM and subsequent concentrations were at 1/3 log dilution intervals. A matched DMSO control was included. The cells were subsequently incubated for either 2 or 24 hours at 37° C. and 5% CO2. After incubation, media was removed and the cells were incubated with lysis buffer containing phosphatase inhibitors for 15 minutes at room temperature. Cell lysates were transferred to a 12 area 96 well white Optiplate™ (Perkin Elmer 6005569) and incubated with anti-mouse IgG acceptor beads, a biotinylated anti-ERK1/2 rabbit antibody recognizing both phosphorylated and non-phosphorylated ERK1/2, a mouse antibody targeted to the Thr202/Tyr204 epitope and recognizing phosphorylated ERK proteins only, and streptavidin-coated donor beads. The biotinylated antibody binds to the streptavidin-coated donor beads and the phopsho-ERK1/2 antibody binds to the acceptor beads. Plates were read on an EnVision reader (Perkin Elmer) and excitation of the beads at 680 nm with a laser induced the release of singlet oxygen molecules from the donor beads that trigger energy transfer to the acceptor beads in close proximity, producing a signal that can be measured at […]. Both antibodies bound to phosphorylated ERK proteins, bringing the donor and acceptor beads into close proximity. All data were analyzed using the Dotmatics or GraphPad Prism software packages. Inhibition of ERK phosphorylation was assessed by determination of the absolute IC50 value, which is defined as the concentration of compound required to decrease the level of phosphorylated ERK proteins by 50% when compared to DMSO control.
WiDr AlphaLISA SureFire pERK1/2 Cellular Assay
The human WiDr colorectal adenocarcinoma cell line (ATCC CCL-218) endogenously expresses the BRAF^V600E mutation, which leads to constitutive activation of the MAP kinase pathway and phosphorylation of ERK. […] The main procedure is essentially the same as for HCT-116 cells (above), with the following adjustments to the growth medium (Eagle's Minimum Essential Medium (Sigma M2279) with 1× Glutamax (Life Technologies 35050038), 1× Sodium-Pyruvate (Sigma S8636), and 10% heat-inactivated fetal bovine serum (Sigma F9665)), the dosing medium (Eagle's Minimum Essential Medium (Sigma M2279) with 1× Glutamax (Life Technologies 35050038), 1× Sodium-Pyruvate (Sigma S8636), and 1% heat-inactivated fetal bovine serum (Sigma F9665)), and the seeding densities (2 hr: 50,000 cells per well; 24 hr: 35,000 cells per well). Moreover, the compounds were dosed in 1/2 log dilution intervals with the top concentration of 10 μM.

[3] = Microsomal stability assay, human liver microsomes (HLM); format: in vitro ADME; conditions: 0.5 mg/mL protein, 1 μM substrate
How it was run: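 Substrate depletion: 1 μM compound incubated at 37° C. with cryopreserved mouse or human liver microsomes at 0.5 mg·mL^−1 protein. Timed aliquots quenched in ice-cold organic solvent and measured by LC-MS/MS; t1/2 and CLint derived from the slope of ln % remaining versus time.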

[4] = HCT116 cells, dimer, read-out: pERK HCT116 dimer (1 hr) plC50 (converted)
[5] = HCT116 cells pre-dosed with 1 μM Encorafenib, read-out: pERK HCT116 dimer (1 hr) pIC50 (converted)
[6] = WiDr cells, 2 hr, absolute IC50

| Structure (SMILES) | IC50 [1, 4] [nM] | IC50 ([2]; WiDr cells, 2 hr, Abs) [nM] | microsomal CLint at 1 μM ([3]; 37° C.) [µL/min/mg] | other results |
| --- | --- | --- | --- | --- |
| O=C(Nc1nccc(Oc2ccc3c(c2)CC(c2nc(-c4ccccc4)c[nH]2)CO3)n1)C1CC1 (stereo not drawn) [Compound 148, N-[4-[3-(4-phenyl-1H-imidazol-2-yl)chroman-6-yl]oxypyrimidin-2-yl]cyclopropanecarboxamide] | 457 | 871 | 132 | – |
| O=C(CN1CCOCC1)Nc1cc(Oc2ccc3c(c2)CC(c2nc(-c4ccccc4)c[nH]2)CO3)ccn1 (stereo not drawn) [Compound 149] | 363 | 933 | 63.7 | – |
| O=C1CCc2c(Oc3ccc4c(c3)CN(C(=O)Nc3cccc(C(F)(F)F)c3)CC4)ccnc2N1 [Compound 50] | – | – | – | IC50 [1, 5]: 64.6 nM; IC50 [2, 6]: 97.7 nM; microsomal CLint at 1 μM [3]: 70.4 µL/min/mg |
| Cc1cc(-c2c[nH]c(C3COc4ccc(Oc5ccnc6c5CCC(=O)N6)cc4C3)n2)n(CC(F)(F)F)n1 (stereo not drawn) [Compound 126, 5-[3-[4-[5-methyl-2-(2,2,2-trifluoroethyl)pyrazol-3-yl]-1H-imidazol-2-yl]chroman-6-yl]oxy-3,4-dihydro-1H-1,8-naphthyridin-2-one] | 245 | 1020 | 121 | – |
| COc1cc(-c2c[nH]c(C3COc4ccc(Oc5ccnc6c5CCC(=O)N6)cc4C3)n2)ccn1 (stereo not drawn) [Compound 104] | 347 | – | – | pERK WiDr (2 hr) Abs pIC50 ([2]; WiDr cells, 2 hr, Abs): 5.96; HLM (CLint) ([3]; 37° C.): 27.8 µL/min/mg |
| Cn1ncc2ccc(-c3c[nH]c(C4COc5ccc(Oc6ccnc7c6CCC(=O)N7)cc5C4)n3)cc21 (stereo not drawn) [Compound 130, 5-[3-[4-(1-methylindazol-6-yl)-1H-imidazol-2-yl]chroman-6-yl]oxy-3,4-dihydro-1H-1,8-naphthyridin-2-one] | 166 | 603 | 23.6 | – |
| CCc1cc(-c2c[nH]c(C3COc4ccc(Oc5ccnc6c5CCC(=O)N6)cc4C3)n2)n(C2CC2)n1 (stereo not drawn) [Compound 113, 5-[3-[4-(2-cyclopropyl-5-ethyl-pyrazol-3-yl)-1H-imidazol-2-yl]chroman-6-yl]oxy-3,4-dihydro-1H-1,8-naphthyridin-2-one] | 513 | 1480 | 82.1 | – |
| Cc1cc(-c2c[nH]c(C3COc4ccc(Oc5ccnc6c5CCC(=O)N6)cc4C3)n2)n(C(C)C)n1 (stereo not drawn) [Compound 112, 5-[3-[4-(2-isopropyl-5-methyl-pyrazol-3-yl)-1H-imidazol-2-yl]chroman-6-yl]oxy-3,4-dihydro-1H-1,8-naphthyridin-2-one] | 257 | 1000 | 81.5 | – |
| CC(=O)Nc1cc(Oc2ccc3c(c2)CC(c2nc(-c4ccccc4)c[nH]2)CO3)ccn1 (stereo not drawn) [Compound 156, N-[4-[3-(4-phenyl-1H-imidazol-2-yl)chroman-6-yl]oxy-2-pyridyl]acetamide] | 52.5 | 132 | 30.3 | – |
| CN1CCN(CC(=O)Nc2cc(Oc3ccc4c(c3)CC(c3nc(-c5ccccc5)c[nH]3)CO4)ccn2)CC1 (stereo not drawn) [Compound 146, 2-(4-methylpiperazin-1-yl)-N-[4-[3-(4-phenyl-1H-imidazol-2-yl)chroman-6-yl]oxy-2-pyridyl]acetamide] | 170 | 398 | 33.4 | – |
| O=C(Nc1cc(Oc2ccc3c(c2)CC(c2nc(-c4ccccc4)c[nH]2)CO3)ccn1)C1CC1 (stereo not drawn) [Compound 45, N-[4-[3-(4-phenyl-1H-imidazol-2-yl)chroman-6-yl]oxy-2-pyridyl]cyclopropanecarboxamide] | – | – | – | IC50 [1, 5]: 89.1 nM; IC50 [2, 6]: 66.1 nM; microsomal CLint at 1 μM [3]: 58.1 µL/min/mg |
| O=C1CCc2c(Oc3ccc4c(c3)CC(c3nc(C5CCOCC5)c[nH]3)CO4)ccnc2N1 (stereo not drawn) [Compound 132, 5-[3-(4-tetrahydropyran-4-yl-1H-imidazol-2-yl)chroman-6-yl]oxy-3,4-dihydro-1H-1,8-naphthyridin-2-one] | 427 | 832 | 20.7 | – |
| O=C(CN1CC[C@@H](O)C1)Nc1cc(Oc2ccc3c(c2)CC(c2nc(-c4ccccc4)c[nH]2)CO3)ccn1 (stereo partly drawn) [Compound 145] | 178 | 331 | 57.2 | – |
| O=C1CCc2c(Oc3ccc4c(c3)CC(c3nc5cc(F)c(F)cc5[nH]3)CO4)ccnc2N1 (stereo not drawn) [Compound 23] | – | – | – | IC50 [1, 5]: 224 nM; IC50 [2, 6]: 229 nM; microsomal CLint at 1 μM [3]: 29.9 µL/min/mg |
| O=C1CCc2c(Oc3ccc4c(c3)CC(c3nc(-c5cncc(C(F)(F)F)c5)c[nH]3)CO4)ccnc2N1 (stereo not drawn) [Compound 103, 5-[3-[4-[5-(trifluoromethyl)-3-pyridyl]-1H-imidazol-2-yl]chroman-6-yl]oxy-3,4-dihydro-1H-1,8-naphthyridin-2-one] | 107 | 269 | 11.6 | – |
| Cc1c[nH]c(-c2cc(Oc3ccc4c(c3)CC(c3nc(-c5ccccc5)c[nH]3)CO4)ccn2)n1 (stereo not drawn) [Compound 143, 2-(4-methyl-1H-imidazol-2-yl)-4-[3-(4-phenyl-1H-imidazol-2-yl)chroman-6-yl]oxy-pyridine] | 575 | 302 | 36.1 | – |
| COc1csc(-c2c[nH]c(C3COc4ccc(Oc5ccnc6c5CCC(=O)N6)cc4C3)n2)c1 (stereo not drawn) [Compound 122, 5-[3-[5-(4-methoxy-2-thienyl)-1H-imidazol-2-yl]chroman-6-yl]oxy-3,4-dihydro-1H-1,8-naphthyridin-2-one] | 162 | 355 | 80.3 | – |
| CC(C)(C)CCc1c[nH]c(C2COc3ccc(Oc4ccnc5c4CCC(=O)N5)cc3C2)n1 (stereo not drawn) [Compound 115, 5-[3-[4-(3,3-dimethylbutyl)-1H-imidazol-2-yl]chroman-6-yl]oxy-3,4-dihydro-1H-1,8-naphthyridin-2-one] | 105 | 8.13 | 277 | – |
| c1ccc(-c2c[nH]c(C3COc4ccc(Oc5ccnc(Nc6ccccn6)c5)cc4C3)n2)cc1 (stereo not drawn) [Compound 140, 4-[3-(4-phenyl-1H-imidazol-2-yl)chroman-6-yl]oxy-N-(2-pyridyl)pyridin-2-amine] | 2040 | 1260 | 48.7 | – |
| Cc1ccc(-c2c[nH]c(C3COc4ccc(Oc5ccnc6c5CCC(=O)N6)cc4C3)n2)s1 (stereo not drawn) [Compound 110] | 50.1 | 70.8 | 48.3 | – |
| O=C(Nc1cc(Oc2ccc3c(c2)CC(c2nc(-c4ccccc4)c[nH]2)CO3)ncn1)C1CC1 (stereo not drawn) [Compound 151, N-[6-[3-(4-phenyl-1H-imidazol-2-yl)chroman-6-yl]oxypyrimidin-4-yl]cyclopropanecarboxamide] | 204 | – | 18.3 | IC50 ([2]; WiDr, 2 h): 224 nM |
| O=C1CCc2c(Oc3ccc4c(c3)CN(C(=O)Nc3ccc(C(F)(F)F)cc3)CC4)ccnc2N1 [Compound 47] | – | – | – | IC50 [1, 5]: 64.6 nM; IC50 [2, 6]: 117 nM; microsomal CLint at 1 μM [3]: 24.5 µL/min/mg |
